Data published in patent US9096539B2, “Substituted 4,5-dihydro-2H-benzo[e]indazole-9-carboxylates for the treatment of diabetes and related disorders” (Council of Scientific & Industrial Research, priority 2012, dated 2015).
Each block holds one compound with its values, some of them ahead of it.

How the values were obtained:
[1] = target: T1, human recombinant PTP1B enzyme (Homo sapiens, UniProt P18031); experiment: Protein tyrosine phosphatase-1B assay (colorimetric kit BML-AK 822); assay type: biochemical; settings: Table 5; evaluated at 10 μM concentration; read-out: % Inhibition (PTP-1B)
T1 construct: purchased Enzo Life Sciences, USA BML-AK 822
T1 sequence (P18031 1-322 limits assumed): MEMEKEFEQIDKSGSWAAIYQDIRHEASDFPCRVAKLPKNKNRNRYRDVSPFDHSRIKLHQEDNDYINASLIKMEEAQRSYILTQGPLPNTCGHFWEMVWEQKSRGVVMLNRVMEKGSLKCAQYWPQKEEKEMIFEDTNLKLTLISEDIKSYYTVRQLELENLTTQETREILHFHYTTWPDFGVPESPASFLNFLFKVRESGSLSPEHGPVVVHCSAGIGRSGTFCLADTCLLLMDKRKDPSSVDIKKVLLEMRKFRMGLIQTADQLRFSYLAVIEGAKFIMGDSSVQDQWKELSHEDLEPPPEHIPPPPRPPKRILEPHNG
Protocol: Assay was done according to the Kit manufacturers protocol, in brief the reaction was carried out in 96 well flat bottomed microtiter plate by the addition of assay buffer, solution of test compounds and diluted PTP1B enzyme. Enzyme reaction was initiated by addition of 50 μl of warmed 2× substrate then incubated the plate at 30° C. for 30 min. After incubation for 30 min. Reaction was terminated by addition of 25 μl of biomol red reagent and mixed thoroughly by repeated pipetting. […] Volumes and dilution of other component were accordingly as instructed in the manual provided in the kit. PTP1B phosphatase acting on the phosphopeptide substrate and release phosphate. The detection of free phosphate released is based on classic Malachite green assay. After adding biomol red to reaction wells after 30 minutes of incubation as described earlier the plate was incubated for another 20 min to develop the colour. Absorbance was recorded at 620 nm. on a microplate reader.

[2] = system: sucrose loaded normoglycaemic rats; experiment: Antihyperglycaemic activity on sucrose loaded normoglycaemic rats (SLM); assay type: in vivo, rat; settings: sucrose loaded normoglycaemic rats, compounds 100 mg/kg, Januvia 50 mg/kg; for Blood Glucose Profile 0 min: 0 min (fasting baseline); for Blood Glucose Profile 120 min: 120 min post sucrose
Protocol: (§1) The test compounds and standard antidiabetic drug Januvia were prepared in 1.0% freshly prepared Gum acacia.
Assessment of Test Compounds for Antihyperglycaemic Activity on Sucrose Loaded Normoglycaemic Rats—
In order to search towards the antidiabetic activity, synthetic compounds were preliminary evaluated for their effect on glucose tolerance in normal rats. It is an indirect effect of measuring antihyperglycaemic activity. Male albino rats of Wistar strain of body weight 160±20 g were selected for this study. The blood glucose of each animal was checked by glucometer using glucostrips (Accu-check) after 16 hours starvation. Animals showing blood glucose between 60 to 80 mg/dl (3.33 to 4.44 mM) were divided into groups of five to six animals in each. Rats of experimental group were administered suspension of the desired test compound orally (made in 1.0% gum acacia). The standard dose decided for Synthetic compounds is 100 mg/kg body weight. Animals of control group were given an equal amount of 1.0% gum acacia. A sucrose load (10.0 g/kg) was given to each animal orally exactly after 30 min post administration of the test sample/vehicle. Blood glucose profile of each rat was again determined at 30, 60, 90 and 120 min post administration of sucrose by glucometer. Food but not water was withheld from the cages during the course of experimentation. Quantitative glucose tolerance of each animal was calculated by area under curve (AUC) method using Prism Software. Comparing the AUC of experimental and control groups determined the percentage antihyperglycaemic activity. Statistical comparison was made by Dunnett's test.
(§2) Quantitative glucose tolerance of each animal was calculated by the area under the curve (AUC) method using Prism Software. The area under the curve of the control group and the experimental group was compared to determine the percent antihyperglycaemic activity. Statistical comparisons were performed by one-way analysis of variance (ANOVA), followed by Dunnett's multiple range test (DMRT). The results were considered statistically significant if the ‘p’ values were 0.05 or less. Results were expressed as mean±SEM.

[3] = system: sucrose challenged STZ induced diabetic rats; experiment: Antihyperglycaemic activity in sucrose challenged streptozotocin (STZ)-induced diabetic rats (STZ-S); assay type: in vivo, rat; settings: compounds 100 mg/kg, Januvia 50 mg/kg
Protocol: The test compounds and standard antidiabetic drug Januvia were prepared in 1.0% freshly prepared Gum acacia. Assessment of Test Compounds for Antihyperglycaemic Activity in Sucrose Challenged Streptozotocin STZ-Induced Diabetic Rats— Induction of Diabetes in Rats: Overnight starved male albino rats of Sprague Dawley strain were used and Diabetes was induced in the animals by single intraperitoneal injection of Streptozotocin at 60 mg/kg body weight dose prepared in 0.1M citrate buffer (pH 4.5). Fasting blood glucose level was measured by using a Glucometer (ACCU-CHEK II; […] Grouping and Treatment: […] All the diabetic animals were again divided into groups with five animals in each group. Animals of one group were regarded as the control group (orally administered 1% gum acacia) and the others were treated as the experimental groups. […] Animals of the control group were given an equal amount of 1.0% gum acacia. The standard antidiabetic drug Januvia was given to the animals at an oral dose of 50 mg/kg body weight. […] Food but not water was withheld from the cages during the course of experimentation. Percent hyperglycemic activity was determined by comparing the AUC (area under curve) of experimental groups with that of the vehicle treated control group. Quantitative glucose tolerance of each animal was calculated by the area under the curve (AUC) method using Prism Software. The area under the curve of the control group and the experimental group was compared to determine the percent antihyperglycaemic activity. Statistical comparisons were performed by one-way analysis of variance (ANOVA), followed by Dunnett's multiple range test (DMRT). […] Results were expressed as mean±SEM.

[4] = system: low dosed STZ induced diabetic rats; experiment: Antihyperglycaemic activity in low dosed streptozotocin induced diabetic rats (STZ); assay type: in vivo, rat; settings: low dosed STZ diabetic rats, compounds 100 mg/kg, Januvia 50 mg/kg
Protocol: as §1
Assessment of Test Compounds for Antihyperglycaemic Activity in Low Dosed Streptozotocin Induced Diabetic Rats—
Induction of Diabetes in Rats:
Overnight starved male albino rats of Sprague Dawley strain were used and Diabetes was induced in the animals by single intraperitoneal injection of Streptozotocin at 60 mg/kg body weight dose prepared in 0.1M citrate buffer (pH 4.5). Fasting blood glucose level was measured by using a Glucometer (ACCU-CHEK II; Roche Diagnostics, USA) after 48 hours and animals showing blood glucose level above 300 mg/di were considered as diabetic.
The diabetic animals were divided into four groups (Group 1 to 4) each consisting 6 rats. Group 1 received 0.4 ml vehicle (1% gum acacia). Group 2 received the test compound 5 at an oral dose of 100 mg/kg/body weight. Group 3 was given compound 6 at an oral dose of 100 mg/kg/body weight. The standard antidiabetic drug Januvia was given to the animals of Group 4 at an oral dose of 50 mg/kg body weight. […] Food but not water was withheld from the cages during the course of experimentation. Percent hyperglycemic activity was determined by comparing the AUC (area under curve) of experimental groups with that of the vehicle treated control group.
as §2

[5] = 0 min pre treatment (fasting baseline)

melting point: 235 to 237 °C
SMILES: COC(=O)c1c(SC)cc(-c2ccc3ccccc3c2)c2c1-c1cn(-c3ccccc3)nc1C2 [compound 13, Methyl 5-(methylthio)-7-(naphthalen-2-yl)-2-phenyl-2,8-dihydroindeno[2,1-c]pyrazole-4-carboxylate]

inhibition at 10 µM [1]: 8.43%
melting point: 172 to 174 °C
SMILES: COC(=O)c1c(SC)cc(-c2ccc(OC)cc2)c2c1-c1cn(-c3ccccc3)nc1CC2 [compound 3, methyl 6-(4-methoxyphenyl)-8-(methylthio)-2-phenyl-4,5-dihydro-2H-benzo[e]indazole-9-carboxylate]

inhibition at 10 µM [1]: 18.8%
melting point: 204 to 206 °C
SMILES: COC(=O)c1c(S(C)(=O)=O)cc(-c2cccc3ccccc23)c2c1-c1cn(-c3ccccc3)nc1CC2 [compound 11, methyl 8-(methylsulfonyl)-6-(naphthalen-1-yl)-2-phenyl-4,5-dihydro-2H-benzo[e]indazole-9-carboxylate]

inhibition at 10 µM [1]: 1.52%
melting point: 245 to 247 °C
SMILES: COC(=O)c1c(S(C)(=O)=O)cc(-c2ccc(F)cc2)c2c1-c1cn(-c3ccccc3)nc1CC2 [compound 10, methyl 6-(4-fluorophenyl)-8-(methylsulfonyl)-2-phenyl-4,5-dihydro-2H-benzo[e]indazole-9-carboxylate]

inhibition at 10 µM [1]: 16.4%
melting point: 173 to 175 °C
SMILES: COC(=O)c1c(SC)cc(-c2ccccc2)c2c1-c1cn(-c3ccccc3)nc1CC2 [compound 4, methyl 8-(methylthio)-2,6-diphenyl-4,5-dihydro-2H-benzo[e]indazole-9-carboxylate]

inhibition at 10 µM [1]: 12.7%
melting point: 174 to 176 °C
SMILES: COC(=O)c1c(SC)cc(-c2cccs2)c2c1-c1cn(-c3ccccc3)nc1CC2 [compound 7, methyl 8-(methylthio)-2-phenyl-6-(thiophen-2-yl)-4,5-dihydro-2H-benzo[e]indazole-9-carboxylate]

inhibition at 10 µM [1]: 60.2%
SMILES: Cc1ccc(C(=O)Nc2ccc(S(=O)(=O)O)c3cc(S(=O)(=O)O)cc(S(=O)(=O)O)c23)cc1NC(=O)c1cccc(NC(=O)Nc2cccc(C(=O)Nc3cc(C(=O)Nc4ccc(S(=O)(=O)O)c5cc(S(=O)(=O)O)cc(S(=O)(=O)O)c45)ccc3C)c2)c1 [Standard Suramin, suramin, reference compound]

SMILES: N[C@@H](CC(=O)N1CCn2c(nnc2C(F)(F)F)C1)Cc1cc(F)c(F)cc1F [Januvia, reference compound]
Blood Glucose Profile 0 min ([2]; mean ± S.E.): 66.3 ± 3.12 mg/dL
Blood Glucose Profile 0 min ([2]; mean ± S.E., listed as januvia): 66.2 ± 0.73 mg/dL
Blood Glucose Profile 30 min ([2]; 30 min post sucrose, mean ± S.E.): 114.0 ± 8.21 mg/dL
Blood Glucose Profile 60 min ([2]; 60 min post sucrose, mean ± S.E.): 104.8 ± 5.70 mg/dL
Blood Glucose Profile 90 min ([2]; 90 min post sucrose, mean ± S.E.): 112.0 ± 7.30 mg/dL
Blood Glucose Profile 120 min ([2]; mean ± S.E.): 115.0 ± 7.67 mg/dL
Blood Glucose Profile 120 min ([2]; mean ± S.E., listed as januvia): 115.0 ± 7.67 mg/dL
% Antihyperglycaemic activity SLM ([2]; AUC vs control, oral): 35.0%
% Antihyperglycaemic activity STZ-S 0-5 h AUC ([3]; 0-5 h AUC, oral): 21.8%
% Antihyperglycaemic activity STZ-S 0-24 h AUC ([3]; 0-24 h AUC, oral): 23.8%
Blood Glucose Profile 0 min (Pre treatment) [3, 5]: 222.3 ± 16.2 mg/dL
Blood Glucose Profile 30 min (Post treatment) ([3]; 30 min): 455.0 ± 14.2 mg/dL
Blood Glucose Profile 60 min (Post treatment) ([3]; 60 min): 519.8 ± 16.0 mg/dL
Blood Glucose Profile 90 min (Post treatment) ([3]; 90 min): 469.3 ± 9.40 mg/dL
Blood Glucose Profile 120 min (Post treatment) ([3]; 120 min): 439.3 ± 14.2 mg/dL
Blood Glucose Profile 180 min (Post treatment) ([3]; 180 min): 377.6 ± 10.1 mg/dL
Blood Glucose Profile 240 min (Post treatment) ([3]; 240 min): 359.5 ± 10.1 mg/dL
Blood Glucose Profile 300 min (Post treatment) ([3]; 300 min): 337.6 ± 8.18 mg/dL
Blood Glucose Profile 1440 min (Post treatment) ([3]; 1440 min): 394.6 ± 8.34 mg/dL
Blood Glucose Profile 0 min (Pre treatment) [4, 5]: 341.4 ± 3.53 mg/dL
Blood Glucose Profile 30 min (Post treatment) ([4]; 30 min): 445.8 ± 13.0 mg/dL
Blood Glucose Profile 60 min (Post treatment) ([4]; 60 min): 497.4 ± 11.2 mg/dL
Blood Glucose Profile 90 min (Post treatment) ([4]; 90 min): 473.4 ± 11.2 mg/dL
Blood Glucose Profile 120 min (Post treatment) ([4]; 120 min): 392.0 ± 11.8 mg/dL
Blood Glucose Profile 180 min (Post treatment) ([4]; 180 min): 348.2 ± 16.7 mg/dL
Blood Glucose Profile 240 min (Post treatment) ([4]; 240 min): 300.4 ± 14.7 mg/dL
Blood Glucose Profile 300 min (Post treatment) ([4]; 300 min): 255.0 ± 16.9 mg/dL
Blood Glucose Profile 1440 min (Post treatment) ([4]; 1440 min): 484.4 ± 10.7 mg/dL
% Antihyperglycaemic activity STZ 0-5 h AUC ([4]; 0-5 h AUC, oral): 28.2%
% Antihyperglycaemic activity STZ 0-24 h AUC ([4]; 0-24 h AUC, oral): 27.4%
